Literature values as cited in patent US6576223B2, “Insect repellent” (Karl Engelhard Fabrik Pharm Praparate GmbH & Co. KG., priority 1997, dated 2003).

How the values were obtained:
[1] = concentrations of DEET exceeding 30%; monograph Diethyltoluamid, Bundesanzeiger No. 137

Molecule | period of effectiveness (insects; DEET as alcohol solution applied to the skin, known agents) | side effects [1] | repellent effect of the adjuvant itself (insects; adjuvant alone, EP 0 090 288)
CCN(CC)C(=O)c1cccc(C)c1 [DEET, N,N-diethyl-m-toluamide] | about 5 hours | blistering, ulceration, and necroses can occur | –
polyethylene glycol 400 [PEG-400] | – | – | no repellent effect
